Reference: publication PMC12648443, “Modifications of NU-9, a potent protein aggregation inhibitor. Properties and activity in a cellular model of amyotrophic lateral sclerosis” (Bioorganic chemistry, 2025)

Experiments:
[1] = tested on: primary hippocampal neurons; parameters: method as in PMID 40030015; details: cited from earlier work
[2] = parameters: method as in PMID 33634973; details: human microsomes; cited from earlier work
HepG2 cells = test: In vitro cytotoxicity, CellTiter-Glo, HepG2; assay type: cell-based; details: cytotoxicity EC50 (HepG2, HEK293) versus PC12-SOD1^G85R EC50
Description: (§1) The HepG2 and HEK293 cells were cultured in DMEM media supplemented with 10 % FBS (heat-inactivated), 1 % Pen-strep, and L-glutamine and incubated at 37 °C in humidified air with 5 % CO2 until 85–90 % confluency. The PC12 Tet-Off-SOD1^G85R YFP cells were maintained as described in 4.2. On the day before the experiments, the cells were transferred to white bottom 96 well plates (Greiner cat. 655,083) at a concentration of 50,000 cells/100 μL of media in each well and incubated overnight at 37 °C. Stock solutions of the compounds (30 mM) in DMSO were prepared and then diluted in media to obtain the six final working solutions starting at 30 μM, and serial dilutions were obtained with the lowest concentration at 0.25 μM. The media were removed and fresh media containing the compounds or the vehicle DMSO (0.1 % v/v) were transferred to the plates containing HepG2 and HEK293 cells and the plates were incubated for 24 or 48 h at 37 °C. The PC12 Tet-Off-SOD1^G85R YFP cells compound treatment was performed as described in section 4.2 and using a 9-point 2-fold serial dilution of the compounds starting at 15 μM and the lowest concentration at 0.05 μM. After incubation, the plates were cooled to room temperature and 25 μL of CellTiter-Glo® solution was added to each well. The plates were loaded into a BioTek Synergy H1 MD plate reader and shaken for 2 min, stabilized for 10 min without shaking, and then the luminescence values were read for each well (luminescence integration step 1 ms). Wells containing media with the vehicle DMSO with or without cells were used as controls to represent, respectively, the maximum viability and the lowest viability (background signal) for the cytotoxicity studies with HepG2 and HEK293 cell lines. The viability values for the assay performed with the PC12 Tet-Off-SOD1^G85R YFP cells were normalised for the vehicle (0.1 % DMSO) and (−)-MG-132 alone treatments, which represented respectively the […] viability for the assay.
(§2) The results are presented as an average of three independent experiments, each performed in triplicate, for the cytotoxicity experiments performed with HepG2 and HEK293 cells. The results for the protective screening with the PC12 Tet-Off-SOD1^G85R YFP cells are presented as an average of four replicates.

[3] = In vitro cytotoxicity, CellTiter-Glo, HepG2; assay type: cell-based; details: human, HepG2 cells
Description: as §1, §2

[4] = tested on: MG132-induced mutant SOD1 intracellular aggregation in PC12-SOD1^G85R YFP cells; test: Protection against MG132-induced mut-SOD1 intracellular aggregation (fluorescence microscopy); assay type: cell-based
Description: The PC12 Tet-Off-SOD1^G85R YFP cells were cultured in DMEM media supplemented with 10 % horse serum, 5 % Tet-approved FBS, 1 % Penstrep, 1× L-glutamine, 200 μg/mL hygromycin, 100 μg/mL G418, with 1 μg/mL Doxycycline and were incubated at 37 °C in humidified air with […] until 90–95 % confluency. To induce the expression of SOD1^G85R YFP, the Doxycycline was removed at least 4 days before the experiment. To remove the Doxycycline, the media was removed, and the cells were washed 3 times with 1xPBS. The cells were then cultured in standard culture media without Doxycycline. To set up the assay, the cells were then seeded into 96-well cell culture plates (Greiner Bio-One Catalog #655090) at a concentration of 50,000 cells/well with a final volume of 100 μL/well and incubated in the CO2 incubator at 37 °C for 24 h. The media were removed from the cells and replaced with 100 μL of media containing 0.1 % DMSO or compounds, and incubated in the CO2 incubator at 37 °C for 6 h. The media were then replaced with fresh 100 μL of media containing the diluted compounds with 0.7 μM (−)-MG-132, and the plates were incubated for 72 h under culture conditions. After 72 h, the cells were stained with Hoescht 33,342 (55 μg/mL, 10 μL/well) and imaged (lex = 358, 513 nm) using a Molecular Devices ImageXpress Micro Confocal High-Content Imaging System equipped with a 40× objective. […] Image binning was set to 2. DAPI fluorescence was captured using an exposure time of 300 ms, and FITC fluorescence was captured using an exposure time of 400 ms. A 13-plane z-series was acquired for each field of view with a step size of 3 μm. For each condition, 2 sets of 9 images were generated in a 3 × 3 grid to separately image the SOD1^G85R YFP proteins and the nuclei stained with Hoescht 33,342. Image analysis was performed with MetaXpress software (Molecular Devices) using the Transfluor module. Parameters for puncta detection (aggregates) were set with a minimum pit width of 2 μm and a maximum pit width of 5 μm. Signal intensity thresholds were defined as 700 grayscale units above the local background. The analysis provided the average area of each cell that is covered by puncta (pit/cell), which are indicated by bright green spots on the SOD1^G85RYFP image set.
The assay was performed in triplicate for each condition tested, and wells containing the media with vehicle (0.1 % DMSO) or (−)-MG-132 alone were used as controls representing the minimum and maximum aggregate formation. […] The data for EC50 determination was treated with Prism and fitted using a semi-logarithmic curve for determination of the EC50 values of NU9 and compounds 4, 6, 20 and 21.

[5] = Parallel artificial membrane permeability assay - blood brain barrier (PAMPA-BBB); details: pig, PAMPA, pH 7.5
Description: (§3) A solution of 1 × PBS (pH 7.5) was initially prepared by the dilution of a commercially available 10 × PBS solution. […] A solution of porcine brain lipid (PBL) (20 mg/mL in dodecane) was prepared, and 4 μL of this solution was used to coat the filters on the bottom of the PAMPA donor plates (Sigma Aldrich #MAIPNTR10). After air drying for 20 min, the donor plate wells were charged with 250 μL of the solutions of the test compounds or the controls. The donor plate was then placed over the acceptor plate (Sigma Aldrich #MATRNPS50), in which wells were previously filled with 1 × PBS (2 % DMSO v/v) solution. The PAMPA sandwich was closed with parafilm and incubated at 25 °C for 18 h in a humidity-saturated atmosphere with orbital agitation. […] The UV spectra (250–400 nm) of each well were acquired on a BioTek Synergy H1 MD plate reader equipped with a monochromator at room temperature.
(§4) CA(t) is the concentration of the compounds at the final time of incubation on the acceptor well; CD(0) and CD(t) are the concentration of the compounds at the initial time of incubation and at the final time of incubation on the donor well, respectively.

[6] = parameters: method as in PMID 33634973; details: mouse microsomes; cited from earlier work
[7] = In vitro cytotoxicity, CellTiter-Glo, HEK293; assay type: cell-based; details: human, HEK293 cells
Description: as §1, §2

[8] = tested on: PC12-SOD1^G85R YFP cells co-treated with MG132; test: Viability screening against MG132-induced toxicity, CellTiter-Glo; assay type: cell-based; details: PC12-SOD1^G85R YFP cells co-treated with MG132 and the compounds; read-out: PC12-SOD1^G85R EC50, in vitro viability screening (protection against MG132-induced toxicity)
Description: as §1, with “assay. […]” for “assay.”

[9] = tested on: cells containing SOD1 mutations associated with ALS; parameters: method as in PMID 21073276, PMID 22189273, PMID 22837812; details: Fig. 1, evolution of CHD series; cited from earlier work
[10] = tested on: primary hippocampal neuronal cells; parameters: method as in PMID 40030015; details: cited from earlier work
[11] = pig, PAMPA, 18 h, 250 μM, pH 7.5
Description: as §3, §4

Question: With `C[C@H](Oc1cc(C(F)(F)F)cc(C(F)(F)F)c1)C1CC(=O)CC(=O)C1` [NU-9] as the molecule, how does the LC3II puncta [1] read?
Answer: The LC3II puncta was “capable of increasing LC3II puncta”.

Question: And the “t1/2 (human)” value [2]?
Answer: Its value is 74^27 min.

Question: And the “EC50 Fold difference” value (HepG2 cells)?
Answer: Its value is greater than 12.

Question: And the viability at 24 h, 30 μM ([3]; 30 μM, 24 h, relative to untreated cells, read-out: Percentage of viable cells observed at 30 μM treatment, HepG2)?
Answer: The viability at 24 h, 30 μM was 93.5%.

Question: What about the viability at 48 h, 30 μM ([3]; 30 μM, 48 h, relative to untreated cells, read-out: Percentage of viable cells observed at 30 μM treatment, HepG2) of the same molecule?
Answer: Its viability at 48 h, 30 μM is 96.3%.

Question: And the EC50 at 24 h ([3]; cytotoxicity, 24 h)?
Answer: Its EC50 at 24 h is greater than 30 µM.

Question: And the EC50 at 48 h ([3]; cytotoxicity, 48 h)?
Answer: The EC50 at 48 h was greater than 30 µM.

Question: And the EC50 ([4]; PC12-SOD1^G85R YFP cells, 0.7 μM MG132, 72 h, Inactive = no decrease of aggregates at 10 μM vs vehicle)?
Answer: The EC50 was 2.52 ± 0.38 µM.

Question: And the “decrease in MG132-induced SOD-1^G85R aggregate formation” value ([4]; at 10 μM, 72 h)?
Answer: Its value is “marked decrease”.

Question: And the Papp at 18 h, 250 μM [5]?
Answer: Its Papp at 18 h, 250 μM is 6.98 ± 0.14 ×10⁻⁶ cm/s.

Question: What about the “t1/2 (mouse)” value [6] of the same molecule?
Answer: Its value is 52^27 min.

Question: And the viability at 24 h, 30 μM ([7]; 30 μM, 24 h, relative to untreated cells, read-out: Percentage of viable cells observed at 30 μM treatment, HEK293)?
Answer: Its viability at 24 h, 30 μM is 85.7%.

Question: What about the viability at 48 h, 30 μM ([7]; 30 μM, 48 h, relative to untreated cells, read-out: Percentage of viable cells observed at 30 μM treatment, HEK293) of the same molecule?
Answer: The viability at 48 h, 30 μM was 89.6%.

Question: What about the EC50 at 24 h ([7]; cytotoxicity, 24 h) of the same molecule?
Answer: The EC50 at 24 h was greater than 30 µM.

Question: What about the EC50 at 48 h ([7]; cytotoxicity, 48 h) of the same molecule?
Answer: The EC50 at 48 h was greater than 30 µM.

Question: And the EC50 [8]?
Answer: Its EC50 is 3.37 ± 0.26 µM.

Question: What about the EC50 [9] of the same molecule?
Answer: Its EC50 is 0.3 µM.

Question: What about the Amyloid-beta oligomer build-up [10] of the same molecule?
Answer: Its Amyloid-beta oligomer build-up is “capable of reducing Amyloid-beta oligomer build-up”.

Question: And the “Log Pe” value [11]?
Answer: Its value is −5.16.
